Data: ChEMBL document CHEMBL1134810, “G-quadruplex DNA binding by a series of carbocyanine dyes” (Bioorg Med Chem Lett, 2001)

What was measured:
[1] = biological target: DNA polymerase I, thermostable (Thermus aquaticus) (UniProt P19821); assay: Taq polymerase inhibition at […] concentration; conditions: 20 uM
[2] = biological target: DNA polymerase I, thermostable (Thermus aquaticus) (UniProt P19821); assay: G4'-DNA binding-dependent Taq polymerase pausing is the ratio of pause/full bands at 20 uM carbocyanine concentration relative to control; expressed as Normalized ratio of G4'-DNA stop product
[3] = biological target: Telomerase reverse transcriptase (Homo sapiens) (UniProt O14746); assay: Inhibition of human telomerase activity in S100 HeLa cell extract at […] carbocyanine concentration.; type: cell-free
Chain of Telomerase reverse transcriptase (Homo sapiens) (O14746 whole entry): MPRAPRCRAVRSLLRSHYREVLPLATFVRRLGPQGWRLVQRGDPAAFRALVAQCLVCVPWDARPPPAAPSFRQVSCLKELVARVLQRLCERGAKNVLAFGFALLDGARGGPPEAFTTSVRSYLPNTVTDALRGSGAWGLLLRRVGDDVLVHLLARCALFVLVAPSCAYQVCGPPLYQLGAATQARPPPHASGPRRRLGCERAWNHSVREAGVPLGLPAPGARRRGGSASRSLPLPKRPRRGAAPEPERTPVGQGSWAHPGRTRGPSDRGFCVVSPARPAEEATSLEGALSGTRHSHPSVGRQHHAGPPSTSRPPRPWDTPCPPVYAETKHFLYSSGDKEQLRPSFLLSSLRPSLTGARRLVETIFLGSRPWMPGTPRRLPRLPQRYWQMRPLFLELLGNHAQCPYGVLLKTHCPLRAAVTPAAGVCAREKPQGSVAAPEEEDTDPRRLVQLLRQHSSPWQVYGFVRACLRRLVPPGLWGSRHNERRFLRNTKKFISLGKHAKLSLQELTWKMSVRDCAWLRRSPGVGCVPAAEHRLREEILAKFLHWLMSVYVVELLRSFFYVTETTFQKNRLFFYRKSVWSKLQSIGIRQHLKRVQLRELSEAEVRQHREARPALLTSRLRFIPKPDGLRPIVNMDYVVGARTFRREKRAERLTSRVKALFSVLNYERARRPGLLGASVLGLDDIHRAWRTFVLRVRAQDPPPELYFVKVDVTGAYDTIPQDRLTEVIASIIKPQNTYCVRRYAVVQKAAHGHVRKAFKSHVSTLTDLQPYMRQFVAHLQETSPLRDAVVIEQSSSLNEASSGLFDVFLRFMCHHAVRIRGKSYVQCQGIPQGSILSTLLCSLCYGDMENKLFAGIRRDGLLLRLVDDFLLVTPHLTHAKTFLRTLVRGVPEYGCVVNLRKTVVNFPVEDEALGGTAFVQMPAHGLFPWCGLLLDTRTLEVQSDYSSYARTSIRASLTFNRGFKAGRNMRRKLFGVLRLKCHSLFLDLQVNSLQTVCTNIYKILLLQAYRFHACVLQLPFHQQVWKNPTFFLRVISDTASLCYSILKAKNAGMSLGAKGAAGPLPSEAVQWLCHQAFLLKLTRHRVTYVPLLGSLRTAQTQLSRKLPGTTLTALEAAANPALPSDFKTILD

Chain of DNA polymerase I, thermostable (Thermus aquaticus) (P19821 whole entry): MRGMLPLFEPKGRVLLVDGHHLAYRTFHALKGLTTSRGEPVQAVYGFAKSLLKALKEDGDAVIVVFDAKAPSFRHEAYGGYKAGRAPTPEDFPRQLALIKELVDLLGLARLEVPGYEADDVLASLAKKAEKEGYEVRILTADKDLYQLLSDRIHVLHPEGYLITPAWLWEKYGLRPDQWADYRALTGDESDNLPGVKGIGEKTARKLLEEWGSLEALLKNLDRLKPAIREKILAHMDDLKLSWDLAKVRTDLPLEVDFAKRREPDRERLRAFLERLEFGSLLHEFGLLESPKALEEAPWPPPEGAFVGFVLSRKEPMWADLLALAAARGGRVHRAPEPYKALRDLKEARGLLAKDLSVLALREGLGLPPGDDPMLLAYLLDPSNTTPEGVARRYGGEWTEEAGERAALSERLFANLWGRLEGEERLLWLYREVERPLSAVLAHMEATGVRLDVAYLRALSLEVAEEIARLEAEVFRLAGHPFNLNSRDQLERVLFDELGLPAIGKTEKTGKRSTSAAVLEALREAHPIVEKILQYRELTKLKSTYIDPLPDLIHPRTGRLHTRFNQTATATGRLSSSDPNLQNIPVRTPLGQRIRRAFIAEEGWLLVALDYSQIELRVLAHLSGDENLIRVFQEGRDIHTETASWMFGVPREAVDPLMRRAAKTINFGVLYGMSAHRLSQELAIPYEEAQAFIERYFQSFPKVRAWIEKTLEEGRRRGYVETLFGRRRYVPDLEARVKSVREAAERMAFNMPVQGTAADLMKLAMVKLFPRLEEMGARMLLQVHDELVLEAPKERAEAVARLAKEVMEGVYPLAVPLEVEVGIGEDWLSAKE

SMILES	inhibition [1] [%]	Activity [2]	inhibition [3] [%]
CCN1/C(=C/C=C/c2oc3ccccc3[n+]2CC)Oc2ccccc21	15	0.9	< 10
CCN1/C(=C/C=C/C=C/c2oc3ccccc3[n+]2CC)Oc2ccccc21	27	1.6	< 10

Next, values leading:

inhibition [1] [%]	Activity [2]	inhibition [3] [%]	SMILES
1.1	1.1	< 10	CCN1/C(=C/C=C/C=C/C=C/c2sc3ccccc3[n+]2CC)Sc2ccccc21
91		< 10	CCN1C(=CC=CC=Cc2sc3ccccc3[n+]2CC)Sc2ccccc21
14	4.4	35	CCN1/C(=C/C=C/c2sc3ccccc3[n+]2CC)Sc2ccccc21
